Tests used:
Type in all cases: cell-based, human
[1] = tested on: PBMCs; experiment: PBMC flow cytometry, percentages of immune subsets
Experimental: Percentage of immune subsets in PBMCs in lab blood drawn. PBMC were isolated from peripheral blood of donors using ficoll-hypaque gradient centrifugation. The percentages of each cell subset in PBMCs were determined by flow cytometric analysis after staining with specific fluorescent conjugated antibodies directed to the cell surface receptors. No significant differences in the percentages of immune subsets between the donors (FIG. 1A and FIG. 1B).

[2] = tested on: Oral squamous carcinoma cells (OSCCs) and Oral squamous stem cell carcinoma (OSCSCs); experiment: NAC blocking of CDDP mediated cell death (PI staining, flow cytometry); conditions: NAC 20 mM, 24 hours, OSCCs and OSCSCs
Experimental: Testing and selection of the best NAC to be used in ALS treatment. […] Afterwards OSCCs and OSCSCs were detached, and the viability of cells was determined after PI staining followed by flow cytometric analysis. In this figure Forward and Side Scatters (Fs/ss) were assessed since decrease in the Fs/ss is seen in cells undergoing cell death.
Testing and selection of the best NAC to be used in ALS treatment. […] Afterwards OSCCs and OSCSCs were detached, and the viability of cells was determined after PI staining followed by flow cytometric analysis. In this figure the percentage of PI stained cells were assessed.

[3] = tested on: Dental Pulp Stromal Cells (DPSCs); experiment: NAC blocking of H2O2 mediated cell death in DPSCs; conditions: NAC 20 mM, 24 hours, FIG. 67
Experimental: Testing and selection of the best NAC to be used in ALS treatment. […] Afterwards DPSCs were detached, and the viability of cells was determined after PI staining followed by flow cytometric analysis. In this figure the decrease in FS/ss and the percentage of PI stained cells were assessed.

[4] = tested on: OSCSCs; experiment: NAC blocking of H2O2 mediated cell death in OSCSCs; conditions: NAC 20 mM, 24 hours, FIG. 68
[5] = ALS patient H107 JC, Post-NAC, Pre-young plasma
[6] = ALS patient H110 RS, Post-NAC infusion

For `CC(=O)N[C@@H](CS)C(=O)O` [NAC, N-Acetyl-Cysteine], the “CD4, percentage of immune subset” value [1, 5] was 31.4%, the “CD8, percentage of immune subset” value [1, 5] was 15.1% and the “CD14, percentage of immune subset” value [1, 5] was 15.0%. The “CD19, percentage of immune subset” value [1, 5] was 24.6%, the “NK, percentage of immune subset” value [1, 5] was 11.5% and the “NKT, percentage of immune subset” value [1, 5] was 3.58%. For the same compound, the “total of immune subsets” value [1, 5] was 97.6%, the “CD4, percentage of immune subset” value [1, 6] was 27.6% and the “CD8, percentage of immune subset” value [1, 6] was 20.4%. For the same compound, the “CD14, percentage of immune subset” value [1, 6] was 27.1%, the “CD19, percentage of immune subset” value [1, 6] was 10.0% and the “NK, percentage of immune subset” value [1, 6] was 15.3%. For the same compound, the “total of immune subsets” value [1, 6] was 100.4%, the “CDDP mediated cell death, Forward and Side Scatters (Fs/ss)” value ([2]; FIG. 65) was “blocks CDDP mediated Cell death in Oral tumors” and the “CDDP mediated cell death, percentage of PI stained cells” value ([2]; FIG. 66) was “blocks CDDP mediated Cell death in Oral tumors”. The “H2O2 mediated cell death (Fs/ss and PI positive cells)” value [3] was “blocks H2O2 mediated Cell death in DPSCs” and the “H2O2 mediated cell death (Fs/ss and PI positive cells)” value [4] was “blocks H2O2 mediated Cell death in OSCSCs”.

Reference: patent US20240245770A1, “COMPOSITIONS AND METHODS FOR TREATING NEUROMUSCULAR DISORDERS” (The Regents of the University of California, priority 2019, published 2024)
